Results published in patent publication US20110064694A1, “ANTI-HEPATITIS C ACTIVITY OF MESO-TETRAKIS-PORPHYRIN ANALOGUES” (YALE UNIVERSITY, priority 2009, published 2011).
Read-outs that look alike come from different tables or passages of the source.

Columns and labels:
[1] = test system: HCV genotype 1b (Con1) replicon cells Huh-luc/neo-ET
Protocol: Reversibility of the action of compound 6 against genotype 1b HCV replicon. Huh-luc/neo-ET cells were seeded at a density of 2×10^5 cells per well in a 6-well plate, and were incubated for 12 days with DMSO control or up to 1 μM of compound 6 in the absence of G418. Cells were split every three days when media and compounds were replenished, and samples were collected for RNA quantification. compound 6 was removed on Day 12 when cells were split and cultured in the presence of 250 μg/ml of G418. Replicon cells were continuously monitored for another 12 days, during which cells were split and sampled whenever reaching confluence. Cell viability was measured by CellTiter-Glo luminescent cell viability assay following manufacturer's procedures (Promega), and the HCV RNA was quantitated by qRT-PCR and normalized as described above.
The goal of anti-HCV treatment is to completely eliminate the virus from infected cells. In order to assess the reversibility of the antiviral action and the possibility of replicon clearance, we incubated Huhluc/neo-ET cells with increasing concentrations of compound 6 for […] free from G418 (FIG. 4). On Day 12 compound 6 was removed and 250 μgml G418 was reintroduced while the replicon RNA level and cell growth were monitored for another 12 days.

[2] = test system: HCV genotype 1b (Con1) replicon
Protocol: (§1) Quantification of HCV RNA and NS5A protein. Huhluc/neo-ET cells were seeded at the density of 1×10^5 cells per well in 6-well plate and treated with either DMSO control or up to 250 nM of compound 6. Cells were harvested after 24, 48, or 72 hrs of incubation and subjected to luciferase activity assay, RNA quantification and immunoblotting. Results were averaged from three independent repeats. Luciferase activity assay was done in triplets per experiment as aforementioned and RLU reading was normalized against the total protein level per sample determined from Bradford assay. Total RNA was isolated using RNeasy Mini Kit (QIAGEN) and the RNA concentrations were measured by spectrophotometry (GE Healthcare) followed by dilution into 50 ng/μL. Replicon RNA was quantitated in triplicates by amplifying the HCV 5′UTR using one-step real-time reverse transcriptase polymerase chain reactions (qRT-PCR). Each 20 μL replicate contained 100 ng of total RNA, 100 nM probe (6FAM-5′-[…]-3′-MGBNFQ, Applied Biosystems) and 200 nM forward and reverse primers (5′-[…]-3′, and 5′-[…]-3′ respectively, Yale University W.M. Keck Facility) (21), together with iScript reverse transcriptase and reaction mix for one-step RT-PCR (Bio-Rad Laboratories). Reactions were run in the iCycler iQ RealTime thermocycler detection system (Bio-Rad Laboratories) as follows: 10 min at 50° C., 5 min at 95° C., followed by 42 cycles at 95° C. for 15 sec and 60° C. for […]. Results were normalized against the β-actin mRNA levels in each sample (20).

[3] = test system: HCV genotype 2a (JFH-1) replicon; experiment: HCV RNA quantification by qRT-PCR in YSGR-JFH cells; format: cell-based, Hepatitis C virus
Protocol: (§2) Cells. HCV genotype 1b (Con 1 isolate) subgenomic replicon cell line with luciferase reporter (Huh-luc/neo-ET) was kindly provided by Ralf Bartenschlager from the University of Heidelberg (37). Huh-luc/neo-ET cells were cultured in Dulbecco's modified Eagle medium (DMEM , supplemented with 10% fetal bovine serum (FBS), 1 mM nonessential amino acids, and 250 μg/ml of G418 (Invitrogen). Genotype 2a (JFH-I isolate) subgenomic replicon cells YSGR-JFH were cultured in DMEM containing 10 To fetal calf serum, 1 mM nonessential amino acids and 400 μg/ml G418 (31). An additional genotype 1b (Conl) replicon cell line (4291BBix) was cultured in similar media but with 3 μg/ml blasticidin (22).
(§3) Activity of compound 6 against genotype 2a (JFH-I) replicons. In parallel to Huh-luc/neo-ET cells, 1×10^5 YSGR-JFH cells per well were incubated with DMSO control, compound 6, or recombinant human IFNα-2a (Pestka Biomedical Laboratories) in 6-well plates. Cells were harvested after 72 hrs of co-incubation and HCV RNAs were quantitated by qRT-PCR and normalized as described above.

[4] = test system: HCV genotype 1b (Con1) replicon RNA; experiment: HCV RNA quantification by qRT-PCR in Huh-luc/neo-ET cells; format: cell-based, Hepatitis C virus; conditions: for EC50: qRT-PCR, estimated
Protocol: as §1, §3

HBV = experiment: Anti-HBV activity in 2.2.15 cells by Southern DNA hybridization; format: cell-based; conditions: read-out: Antiviral Activity EC50 HBV
Protocol: (§4) Determination of antiviral activities. Ff-luciferase reporter activity was used to monitor the replication of HCV replicons in Huhluc/neo-ET cells free from G418. Replicon cells were seeded at the density of 5×10^3 cells per well in 96-well plates. The following day, replicon cells were incubated in duplicates with DMSO or serially diluted tetraphenylporphyrin (TPP) analogues at 37″C. 72 hrs after co-incubation, cells were lysed with ice-cold passive lysis reagent after PBS wash, and the luciferase activity was measured with the luciferase assay kit (Promega) and Tecan FARCyte luminometer (GE Healthcare) following the manufacturers' descriptions. The relative light units (RLU) were adjusted as percentage readings of the compound-free controls and the 50% effective concentration (EC50) was determined from dose-effect curve by nonlinear regression analysis using Origin 6.1 (OriginLab Software). TPP analogues were also screened in vitro against HIV-I IIIB and HBV as previously described (26,41). Briefly 1×10^3 MT-2 cells per well were exposed in triplets to 0.1TC1D50/cell (50% of the tissue culture infectious dose) of HIV-1 IIIB and cultured in the presence of compounds. The EC50 values were estimated by MTT-based colorimetric quantitation of viral CPE after 5 days. Anti-HBV activities were evaluated in 2.2.15 cells by means of Southern DNA hybridization.

[5] = test system: HCV genotype 1b (Con 1 isolate) subgenomic replicon; experiment: microbe, parasite or virus in culture; format: cell-based, Hepatitis C virus
Protocol: as §2, §4

For `O=C(O)c1cc(C(=O)O)cc(-c2ccc(-c3c4nc(c(-c5ccc(-c6cc(C(=O)O)cc(C(=O)O)c6)cc5)c5ccc([nH]5)c(-c5ccc(-c6cc(C(=O)O)cc(C(=O)O)c6)cc5)c5nc(c(-c6ccc(-c7cc(C(=O)O)cc(C(=O)O)c7)cc6)c6ccc3[nH]6)C=C5)C=C4)cc2)c1` [Compound 6, Meso-teftakis-(3,5-dicarboxy-4,4′-biphenyl)porphyrin], which “cells surviving under G418” value ([1]; 50 nM for 12 days, 6 days after the removal of inhibitor) is on record?
The value was 8.5%.

And the replicon-positive cells rebounded ([1]; 50 nM for 12 days, 12 days after removal of inhibitor)?
Its replicon-positive cells rebounded is 13.1%.

What about the “cells surviving under G418” value ([1]; 100 nM for 12 days, end of the experiment) of the same compound?
The value was 0.007%.

What about the “cell viability after G418 reintroduction” value ([1]; 300 nM and 1 μM for 12 days, 9 days after coincubation with G418) of the same compound?
Its value is “no longer viable”.

What about the “reduction in the HCV RNA levels” value ([1]; 300 nM and above, after 12 days of exposure) of the same compound?
The value was “approximately 4.5 1o916”.

And the “cells surviving under G418” value ([1]; 300 nM for 9 days, 15-day rebound period with G418)?
The value was 0.4%.

What about the replicon clearance ([1]; 1 μM for 9 days, 15-day rebound period with G418) of the same compound?
Its replicon clearance is “achieved complete “cure””.

What about the “toxicity in cells during the 12-day treatment” value ([1]; up to 1 μM, 12 days) of the same compound?
Its value is “did not cause significant toxicity”.

And the “improvement of 72-hr EC50 compared with 24-hrs incubation, luciferase” value ([2]; 72 hr vs 24 hr)?
Its value is “over 3 fold”.

What about the EC50 ([2]; read-out: 24-hr EC50, replicon luciferase activity, 24 hrs incubation) of the same compound?
Its EC50 is 57.8 nM.

What about the EC50 ([2]; read-out: 48-hr EC50, replicon luciferase activity, 48 hrs incubation) of the same compound?
Its EC50 is 19.2 nM.

And the EC50 ([2]; read-out: 72-hr EC50, replicon luciferase activity, 72 hrs incubation)?
The EC50 was 17.6 nM.

And the “EC50 in YSGR-JFH (genotype 2a) relative to EC50 in Huh-luc/neo-ET (genotype 1b)” value ([3]; 72 hrs)?
Its value is “over 57 fold”.

And the “less effective against genotype 2a (JFH-1) than against genotype 1b (Conl) replicons” value ([3]; anti-HCV EC50)?
Its value is 57 times.

And the EC50 ([3]; genotype 2a, 72 hrs, HCV RNA by qRT-PCR, read-out: antiviral EC50 against YSGR-JFH replicon cells)?
Its EC50 is 1380 ± 148 nM.

And the EC50 ([4]; 24 hrs, read-out: 24-hr EC50, HCV RNA level)?
The EC50 was 67.8 nM.

And the EC50 ([4]; 48 hrs, read-out: 48-hr EC50, HCV RNA level)?
The EC50 was 36.2 nM.

What about the “improvement of 72-hr EC50 compared with 24-hr incubation, HCV RNA” value ([4]; 72 hr vs 24 hr) of the same compound?
The value was “over 2 fold”.

What about the EC50 (HBV) of the same compound?
Its EC50 is over 20000 nM.

What about the “selective index in culture (CC50/EC50)” value ([5]; CC50 in naïve Huh-7 cells / EC50) of the same compound?
Its value is “over 2000”.

What about the EC50 ([5]; HCV replicons in vitro, read-out: anti-HCV EC50) of the same compound?
The EC50 was 24 nM.

What about the EC50 ([5]; Huh-luc/neo-ET, 72 hrs, luciferase, read-out: Antiviral Activity EC50 HCV) of the same compound?
The EC50 was 24 ± 5.1 nM.

What about the EC50 ([5]; Table 3, metal M in porphyrin core, read-out: EC50 anti-HCV activity, metallation of porphyrin core of compound 6) of the same compound?
Its EC50 is 19 ± 5.2 nM.

And the “improvement in anti-HCV EC50 over compound 2” value ([5]; relative to lead compound 2)?
Its value is 75 fold.

And the EC50 ([5]; unit inferred, read-out: EC50 against HCV genotype 1b Conl replicons)?
The EC50 was 24 ± 5 nM.
